Measurements taken from ChEMBL document CHEMBL1129469, “Nonpeptide angiotensin II receptor antagonists: the next generation in antihypertensive therapy” (J Med Chem, 1996).

Key:
[1] = biological target: T1, Angiotensin II receptor (AT-1) type-1 (Rattus norvegicus, UniProt P29089+P25095); experiment: In vitro antagonistic potency against Angiotensin II receptor, type 1 in rat liver; type: functional, tissue-based
T1 sequence (P29089 whole entry): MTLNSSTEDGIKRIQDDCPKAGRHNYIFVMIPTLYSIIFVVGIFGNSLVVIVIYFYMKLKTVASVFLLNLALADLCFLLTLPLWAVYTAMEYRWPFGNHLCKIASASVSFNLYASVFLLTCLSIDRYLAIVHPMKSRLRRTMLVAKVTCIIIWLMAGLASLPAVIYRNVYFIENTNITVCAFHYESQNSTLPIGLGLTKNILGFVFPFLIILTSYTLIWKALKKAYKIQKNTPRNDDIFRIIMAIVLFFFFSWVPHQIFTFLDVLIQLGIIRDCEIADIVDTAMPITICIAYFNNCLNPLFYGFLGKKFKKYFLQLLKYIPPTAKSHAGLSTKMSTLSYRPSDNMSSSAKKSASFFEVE
T1 sequence (P25095 whole entry): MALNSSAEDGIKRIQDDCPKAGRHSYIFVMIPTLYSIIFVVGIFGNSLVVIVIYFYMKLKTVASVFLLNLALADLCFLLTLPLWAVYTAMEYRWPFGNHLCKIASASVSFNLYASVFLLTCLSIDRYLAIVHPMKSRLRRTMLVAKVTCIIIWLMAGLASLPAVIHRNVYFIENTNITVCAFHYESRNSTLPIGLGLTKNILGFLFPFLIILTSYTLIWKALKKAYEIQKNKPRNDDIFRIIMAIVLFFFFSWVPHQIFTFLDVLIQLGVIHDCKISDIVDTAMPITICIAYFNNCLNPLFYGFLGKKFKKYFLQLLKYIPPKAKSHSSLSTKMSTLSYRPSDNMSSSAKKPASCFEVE

Rattus norvegicus [2] = organism: Rattus norvegicus; experiment: Oral effective dose required for lowering blood pressure in spontaneous hypertensive rats (SHR); type: functional
Rattus norvegicus [3] = organism: Rattus norvegicus; experiment: Oral effective dose required for lowering blood pressure in renal hypertensive rats (RHR); type: functional
[4] = Oral bioavailability in rat; type: ADME, organism-based; conditions: in vivo
[5] = Oral Bioavailability was evaluated in dog by oral administration; type: ADME, organism-based, Canis lupus familiaris; conditions: in vivo
[6] = Oral Bioavailability was evaluated in cynomolgus monkeys by oral administration; type: ADME, organism-based, Macaca fascicularis; conditions: cynomolgus monkey, in vivo
Oryctolagus cuniculus [7] = organism: Oryctolagus cuniculus; experiment: (§1) Compound was tested for its antagonistic activity against angiotensin II-induced contractions in rabbit aorta; type: functional
[8] = biological target: T2, Type-1 angiotensin II receptor (Oryctolagus cuniculus, UniProt P34976); experiment: Binding affinity was evaluated towards Angiotensin II receptor, type 1 in rabbit aorta; type: tissue-based
T2 sequence (P34976 whole entry): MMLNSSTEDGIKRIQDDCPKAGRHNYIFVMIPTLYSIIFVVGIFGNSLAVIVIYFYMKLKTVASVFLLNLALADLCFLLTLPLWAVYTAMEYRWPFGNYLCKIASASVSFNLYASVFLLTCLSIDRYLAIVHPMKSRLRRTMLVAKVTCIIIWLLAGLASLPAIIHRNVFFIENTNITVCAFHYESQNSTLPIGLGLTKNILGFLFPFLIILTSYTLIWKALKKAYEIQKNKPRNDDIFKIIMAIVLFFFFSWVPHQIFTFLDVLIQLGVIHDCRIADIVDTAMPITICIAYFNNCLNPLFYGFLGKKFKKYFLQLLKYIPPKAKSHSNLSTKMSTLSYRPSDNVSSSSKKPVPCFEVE

Rattus norvegicus [9] = experiment: Compound at an oral dose of 3 mg/Kg was tested for the inhibition of Ang-II induced pressor responses in conscious rats; type: functional
Oryctolagus cuniculus [10] = organism: Oryctolagus cuniculus; experiment: PD' 2 value was evaluated for antagonistic activity in rabbit aorta; type: functional
Rattus norvegicus [11] = experiment: Oral effective dose required for inhibition of pressor response in conscious rats; type: functional
Rattus norvegicus [12] = organism: Rattus norvegicus; experiment: pD'2 value was evaluated against in rat portal vein; type: functional
[13] = Inhibitory activity was evaluated against Angiotensin II receptor, type 2
Rattus norvegicus [14] = experiment: Effective dose was evaluated in pithed normotensive rats by oral administration; type: functional
Rattus norvegicus [15] = experiment: Effective dose was evaluated in pithed normotensive rats by intraveneous administration; type: functional; conditions: iv
Rattus norvegicus [16] = organism: Rattus norvegicus; experiment: Oral effective dose required for inhibition of Ang II pressor response in rats; type: functional
Rattus norvegicus [17] = experiment: Dose dependent inhibition of pressor responses to Ang-II in conscious normotensive rat by bolus intravenous administration; type: functional; conditions: read-out: ID50 (the source's name)
Rattus norvegicus [18] = experiment: Dose dependent inhibition of pressor responses to Ang-II receptor in conscious normotensive rat by intraduodenal administration; type: functional; conditions: read-out: ID50 (the source's name)
Canis familiaris = experiment: Compound at an oral dose of 30 mg/Kg was tested for the inhibition of Ang-II induced pressor responses in conscious dog; type: functional; conditions: Canis lupus familiaris
Oryctolagus cuniculus [19] = organism: Oryctolagus cuniculus; experiment: as §1; type: functional, organism-based
HASMC [20] = experiment: Inhibitory activity against Ang II-induced proliferation of human aortic smooth muscle cells in a dose-dependent manner; type: functional, cell-based
Rattus norvegicus [21] = experiment: Oral effective dose required for inhibition of Ang II pressor response in conscious rat; type: functional
[22] = Oral bioavailability was evaluated in rhesus monkey; type: ADME, organism-based, Macaca mulatta; conditions: in vivo
[23] = Oral bioavailability was evaluated in rat by oral administration; type: ADME, organism-based; conditions: in vivo
Rattus norvegicus [24] = organism: Rattus norvegicus; experiment: pA2 value was evaluated against angiotensin II-induced aldosterone release in rat adrenal cortical cells; type: functional, cell-based; conditions: read-out: pA2 (converted)
Rattus norvegicus [25] = experiment: Intravenous effective dose required for inhibition of Ang II pressor response in conscious rat; type: functional
HASMC [26] = experiment: Inhibitory activity against Ang II-induced proliferation of human aortic smooth muscle cells in a dose dependent manner; type: functional, cell-based
Rattus norvegicus [27] = experiment: Intravenous effective dose required for lowering blood pressure in renal hypertensive rats (RHR); type: functional

SMILES: COc1c(OCc2ccc(-c3ccccc3-c3nn[nH]n3)cc2)cc(C)nc1C
- Log Ki [1]: -8.7
- ED50 (Rattus norvegicus [2]): 0.48 mg/kg
- ED50 (Rattus norvegicus [3]): 2.5 mg/kg

SMILES: CCCN(Cc1ccc(-c2ccccc2-c2nn[nH]n2)cc1)c1ncccc1C(=O)O
- Ki [1]: 0.76 nM
- bioavailability [4]: > 50%
- bioavailability [5]: > 50%
- bioavailability [6]: > 50%

SMILES: CCCCc1nc(C)n(Cc2sccc2C(=O)OC)c(=O)c1Cc1ccc(-c2ccccc2-c2nnn[nH]2)cc1
- pKb (Oryctolagus cuniculus [7]): 9.5
- Ki [8]: 0.9 nM

SMILES: CCc1nc2c(C)cc(C)nc2n1Cc1ccc2c(c1)C(Cc1nnn[nH]1)c1ccccc1-2 (stereo not given)
- inhibition in vivo at 3 mg/kg (Rattus norvegicus [9]): 73%

SMILES: CCc1nc2c(n1Cc1ccc(-c3ccccc3-c3nn[nH]n3)cc1)/C(=C/C(=O)O)CCCC2
- PD' 2 (Oryctolagus cuniculus [10]): 9.91

SMILES: CCCCc1nc(Cl)c(C(=O)OC(C)OC(=O)OCC)n1Cc1ccc(-c2ccccc2-c2nn[nH]n2)cc1 (stereo not given)
- ED50 (Rattus norvegicus [11]): 0.5 mg/kg

SMILES: CCCCc1nc(SC)c(C(=O)O)n1Cc1ccc(-c2ccccc2S(=O)(=O)NC(=O)NCCC)cc1
- pD'2 (Rattus norvegicus [12]): 10.15
- IC50 [13]: 920 nM
- ED50 (Rattus norvegicus [14]): 0.7 mg/kg
- ED50 (Rattus norvegicus [15]): 0.11 mg/kg

SMILES: CCOc1nc2cccc(C(=O)OC(C)OC(=O)OC3CCCCC3)c2n1Cc1ccc(-c2ccccc2-c2nn[nH]n2)cc1 (stereo not given) [CANDESARTAN CILEXETIL]
- ED50 (Rattus norvegicus [16]): 0.069 mg/kg

SMILES: CCCCc1ncc(/C=C(\Cc2cccs2)C(=O)O)n1Cc1ccc(C(=O)O)cc1 [EPROSARTAN]
- ED50 (Rattus norvegicus [17]): 0.08 mg/kg
- ED50 (Rattus norvegicus [18]): 5.5 mg/kg

SMILES: CCCCc1nc(CCCC)n(Cc2ccc(-c3ccccc3-c3nnn[nH]3)nc2)n1 [FORASARTAN]
- inhibition in vivo at 30 mg/kg (Canis familiaris): 91%

SMILES: CCCCC1=NC2(CCCC2)C(=O)N1Cc1ccc(-c2ccccc2-c2nnn[nH]2)cc1 [IRBESARTAN]
- IC50 (Oryctolagus cuniculus [19]): 4 nM
- IC50 (HASMC [20]): 320 nM

SMILES: CCc1nc2c(C)cc(C)nc2n1Cc1ccc(-c2ccccc2-c2nn[nH]n2)cc1 [L-158809]
- ED50 (Rattus norvegicus [21]): 0.023 mg/kg
- bioavailability [22]: 32%
- Kb (Oryctolagus cuniculus [7]): 0.28 nM
- pKB (Oryctolagus cuniculus [7]): 9.3
- bioavailability [23]: 70%
- bioavailability [4]: 100%
- Kb (Rattus norvegicus [24]): 0.0316 nM
- ED50 (Rattus norvegicus [25]): 0.029 mg/kg

SMILES: CCCCc1nc(Cl)c(CO)n1Cc1ccc(-c2ccccc2-c2nnn[nH]2)cc1 [LOSARTAN]
- IC50 (HASMC [26]): 0.71 nM
- Kb (Oryctolagus cuniculus [7]): 22 nM
- pKB (Oryctolagus cuniculus [7]): 8.2
- ED30 (Rattus norvegicus [27]): 0.78 mg/kg
- ED30 (Rattus norvegicus [3]): 0.59 mg/kg
